Publication PMC5218480 (PLoS ONE, 2017)

Test system: MV-4-11 cells
Experiment: Gene expression microarray analysis (Affymetrix PrimeView) and GSEA
Format: cell-based, human
Set-up: RFU PODN (11730768_x_at) / Fold change /veh PODN (11730768_x_at) / RFU LINC00158 (11744669_a_at) / Fold change /veh LINC00158 (11744669_a_at) / RFU DUSP10 (11751237_a_at) / Fold change /veh DUSP10 (11751237_a_at) / RFU ID3 (11757404_x_at) / Fold change /veh ID3 (11757404_x_at) / RFU PLEKHG5 (11737974_s_at) / Fold change /veh PLEKHG5 (11737974_s_at) / RFU LRRC4B (11730491_at) / Fold change /veh LRRC4B (11730491_at) / RFU GIMAP4 (11747438_a_at) / Fold change /veh GIMAP4 (11747438_a_at) / RFU KRT8 (11758183_x_at) / Fold change /veh KRT8 (11758183_x_at) / RFU CNN1 (11734310_a_at) / Fold change /veh CNN1 (11734310_a_at) / RFU VPS37D (11726825_at) / Fold change /veh VPS37D (11726825_at) / RFU C10orf10 (11716522_x_at) / Fold change /veh C10orf10 (11716522_x_at) / RFU KIR2DL2 /// KIR2DL4 /// KIR2DL5A /// KIR2DL5B /// KIR2DS1 /// KIR2DS2 /// KIR2DS3 /// KIR2DS4 /// KIR3DL3 /// KIR3DL3 /// KIR3DS1 (11738374_at) / Fold change /veh KIR2DL2 /// KIR2DL4 /// KIR2DL5A /// KIR2DL5B /// KIR2DS1 /// KIR2DS2 /// KIR2DS3 /// KIR2DS4 /// KIR3DL3 /// KIR3DL3 /// KIR3DS1 (11738374_at) / RFU C1QL1 (11718748_at) / Fold change /veh C1QL1 (11718748_at) / RFU TMPRSS4 (11747572_a_at) / Fold change /veh TMPRSS4 (11747572_a_at) / RFU HAMP (11756126_x_at) / Fold change /veh HAMP (11756126_x_at) / RFU RNFT2 (11725882_a_at) / Fold change /veh RNFT2 (11725882_a_at) / RFU NR4A2 (11747474_a_at) / Fold change /veh NR4A2 (11747474_a_at) / RFU ABCC12 (11746883_a_at) / Fold change /veh ABCC12 (11746883_a_at) / RFU TMEM136 (11760407_x_at) / Fold change /veh TMEM136 (11760407_x_at) / RFU CLDN22 /// WWC2 (11732394_at) / Fold change /veh CLDN22 /// WWC2 (11732394_at) / RFU HLA-DPB1 (11760878_x_at) / Fold change /veh HLA-DPB1 (11760878_x_at) / RFU SPINT1 (11716480_a_at) / Fold change /veh SPINT1 (11716480_a_at) / RFU GAP43 (11754022_s_at) / Fold change /veh GAP43 (11754022_s_at) / RFU A4GNT (11735810_at) / Fold change /veh A4GNT (11735810_at) / RFU PRB3 (11715151_x_at) / Fold change /veh PRB3 (11715151_x_at) / RFU TUBB4B (11761932_at) / Fold change /veh TUBB4B (11761932_at) / RFU CAPN14 (11732068_a_at) / Fold change /veh CAPN14 (11732068_a_at) / RFU TMCC2 (11721928_a_at) / Fold change /veh TMCC2 (11721928_a_at) / RFU IRGQ (11745062_a_at) / Fold change /veh IRGQ (11745062_a_at) / RFU FAM174B (11720279_a_at) / Fold change /veh FAM174B (11720279_a_at) / RFU TMPRSS4 (11748680_a_at) / Fold change /veh TMPRSS4 (11748680_a_at) / RFU FAM212B (11763350_a_at) / Fold change /veh FAM212B (11763350_a_at) / RFU PLEKHG5 (11743358_a_at) / Fold change /veh PLEKHG5 (11743358_a_at) / RFU ZSCAN30 (11745921_a_at) / Fold change /veh ZSCAN30 (11745921_a_at) / RFU CMKLR1 (11741424_a_at) / Fold change /veh CMKLR1 (11741424_a_at) / RFU LOC101060620 /// MAPK8IP1 (11723275_at) / Fold change /veh LOC101060620 /// MAPK8IP1 (11723275_at) / RFU SPTSSB (11747773_x_at) / Fold change /veh SPTSSB (11747773_x_at) / RFU PRSS12 (11739890_at) / Fold change /veh PRSS12 (11739890_at) / RFU BIN1 (11741810_x_at) / Fold change /veh BIN1 (11741810_x_at) / RFU WNT11 (11732464_a_at) / Fold change /veh WNT11 (11732464_a_at) / RFU C10orf10 (11716521_a_at) / Fold change /veh C10orf10 (11716521_a_at) / RFU C5orf56 (11738089_at) / Fold change /veh C5orf56 (11738089_at) / RFU CYB561 (11721691_x_at) / Fold change /veh CYB561 (11721691_x_at) / RFU ANKRD19P (11752326_a_at) / Fold change /veh ANKRD19P (11752326_a_at) / RFU OR2T12 /// OR2T33 /// OR2T8 (11738714_s_at) / Fold change /veh OR2T12 /// OR2T33 /// OR2T8 (11738714_s_at) / RFU VCAN (11748164_a_at) / Fold change /veh VCAN (11748164_a_at) / RFU JSRP1 (11732532_at) / Fold change /veh JSRP1 (11732532_at) / RFU KRTAP10-11 (11738290_x_at) / Fold change /veh KRTAP10-11 (11738290_x_at) / RFU MYO3A (11730013_a_at) / Fold change /veh MYO3A (11730013_a_at) / RFU EBF3 (11725865_a_at) / Fold change /veh EBF3 (11725865_a_at) / RFU CAMK2N1 (11719241_x_at) / Fold change /veh CAMK2N1 (11719241_x_at) / RFU C5orf56 (11738088_a_at) / Fold change /veh C5orf56 (11738088_a_at) / RFU OLFML3 (11715873_a_at) / Fold change /veh OLFML3 (11715873_a_at) / RFU LOC100653217 /// NTM (11731650_a_at) / Fold change /veh LOC100653217 /// NTM (11731650_a_at) / RFU MAPK11 (11762145_a_at) / Fold change /veh MAPK11 (11762145_a_at) / RFU FIZ1 (11724087_x_at) / Fold change /veh FIZ1 (11724087_x_at) / RFU OASL (11726364_x_at) / Fold change /veh OASL (11726364_x_at) / RFU SOX15 (11748057_x_at) / Fold change /veh SOX15 (11748057_x_at) / RFU CD79A (11719716_a_at) / Fold change /veh CD79A (11719716_a_at) / RFU HIST1H1D (11736915_at) / Fold change /veh HIST1H1D (11736915_at) / RFU CASKIN2 (11723855_a_at) / Fold change /veh CASKIN2 (11723855_a_at) / RFU LOC730098 (11760151_x_at) / Fold change /veh LOC730098 (11760151_x_at) / RFU OR4N2 (11742367_at) / Fold change /veh OR4N2 (11742367_at) / RFU PRRT2 (11749266_a_at) / Fold change /veh PRRT2 (11749266_a_at) / RFU SNX32 (11753110_a_at) / Fold change /veh SNX32 (11753110_a_at) / RFU CDHR5 (11726645_a_at) / Fold change /veh CDHR5 (11726645_a_at) / RFU RCAN1 (11760418_a_at) / Fold change /veh RCAN1 (11760418_a_at) / RFU FAM167A (11723789_a_at) / Fold change /veh FAM167A (11723789_a_at) / RFU FAM26E (11764081_at) / Fold change /veh FAM26E (11764081_at) / RFU ISYNA1 (11749810_s_at) / Fold change /veh ISYNA1 (11749810_s_at) / RFU ACY1 (11761880_at) / Fold change /veh ACY1 (11761880_at) / RFU 11764098_at / Fold change /veh 11764098_at / RFU SAMD14 (11745864_x_at) / Fold change /veh SAMD14 (11745864_x_at) / RFU NPB (11741838_a_at) / Fold change /veh NPB (11741838_a_at) / RFU TMPRSS6 (11731388_a_at) / Fold change /veh TMPRSS6 (11731388_a_at) / RFU KRTAP10-2 (11738614_at) / Fold change /veh KRTAP10-2 (11738614_at) / RFU ARHGAP8 /// PRR5-ARHGAP8 (11727945_x_at) / Fold change /veh ARHGAP8 /// PRR5-ARHGAP8 (11727945_x_at) / RFU KRTAP5-7 /// NADSYN1 (11734609_at) / Fold change /veh KRTAP5-7 /// NADSYN1 (11734609_at) / RFU RASL12 (11751679_a_at) / Fold change /veh RASL12 (11751679_a_at) / RFU CDKN2B (11736163_a_at) / Fold change /veh CDKN2B (11736163_a_at) / RFU PRF1 (11729649_at) / Fold change /veh PRF1 (11729649_at) / RFU, ZNF638 /// ZNF638-IT1 / Fold change vs veh, ZNF638 /// ZNF638-IT1 / RFU, PANK3 / Fold change vs veh, PANK3 / RFU, SH3YL1 / Fold change vs veh, SH3YL1 / RFU, ZEB2 / Fold change vs veh, ZEB2 / RFU, NRIP1 / Fold change vs veh, NRIP1 / RFU, PTTG1IP / Fold change vs veh, PTTG1IP / RFU, CAPN2 / Fold change vs veh, CAPN2 / RFU, MED14 / Fold change vs veh, MED14 / RFU, SNORA58 / Fold change vs veh, SNORA58 / RFU, C1orf63 / Fold change vs veh, C1orf63 / RFU, LRRFIP1 / Fold change vs veh, LRRFIP1 / RFU, NDUFAF7 / Fold change vs veh, NDUFAF7 / RFU, SLC12A2 / Fold change vs veh, SLC12A2 / RFU, IBTK / Fold change vs veh, IBTK / RFU, ESF1 / Fold change vs veh, ESF1 / Fold change vs veh, TMEM50B / RFU, TAOK1 / Fold change vs veh, TAOK1 / RFU, ACBD3 / Fold change vs veh, ACBD3 / RFU, TMA16 / Fold change vs veh, TMA16 / RFU, RWDD3 / Fold change vs veh, RWDD3 / RFU, BCAT1 / Fold change vs veh, BCAT1 / RFU, EDEM3 / Fold change vs veh, EDEM3 / RFU, TMEM33 / Fold change vs veh, TMEM33 / RFU, WDR75 / Fold change vs veh, WDR75 / RFU, AHCTF1 / Fold change vs veh, AHCTF1 / RFU, TFRC / Fold change vs veh, TFRC / RFU, ZDHHC17 / Fold change vs veh, ZDHHC17 / RFU, NOM1 / Fold change vs veh, NOM1 / RFU, ARL8B / Fold change vs veh, ARL8B / RFU, ZBTB11 / Fold change vs veh, ZBTB11 / RFU, TAMM41 / Fold change vs veh, TAMM41 / RFU, KIAA1704 /// LOC100996395 / Fold change vs veh, KIAA1704 /// LOC100996395 / RFU, ING1 / Fold change vs veh, ING1 / RFU, TRMT61B / Fold change vs veh, TRMT61B / RFU, FUBP3 / Fold change vs veh, FUBP3 / RFU, TP53 / Fold change vs veh, TP53 / RFU, TNKS2 / Fold change vs veh, TNKS2 / RFU, ZFP14 / Fold change vs veh, ZFP14 / RFU, ACTR2 / Fold change vs veh, ACTR2 / RFU, PPP3R1 / Fold change vs veh, PPP3R1 / RFU, PIK3R1 / Fold change vs veh, PIK3R1 / RFU, HNRNPA1 / Fold change vs veh, HNRNPA1 / RFU, RNF170 / Fold change vs veh, RNF170 / RFU, ZNF28 / Fold change vs veh, ZNF28 / RFU, RNGTT / Fold change vs veh, RNGTT / RFU, OGT / Fold change vs veh, OGT / RFU, BRD1 / Fold change vs veh, BRD1 / RFU, MARS / Fold change vs veh, MARS / RFU, ZNF655 / Fold change vs veh, ZNF655 / RFU, FAHD1 / Fold change vs veh, FAHD1 / RFU, BDP1 / Fold change vs veh, BDP1 / RFU, LRRCC1 / Fold change vs veh, LRRCC1 / RFU, ARID1A / Fold change vs veh, ARID1A / RFU, ZNF146 / Fold change vs veh, ZNF146 / RFU, ZNF330 / Fold change vs veh, ZNF330 / RFU, GPN3 / Fold change vs veh, GPN3 / RFU, C9orf123 / Fold change vs veh, C9orf123 / RFU, N4BP2L2 / Fold change vs veh, N4BP2L2 / RFU, ARFIP1 / Fold change vs veh, ARFIP1 / RFU, FAM179B / Fold change vs veh, FAM179B / RFU, BCL10 / Fold change vs veh, BCL10 / RFU, UHRF1BP1L / Fold change vs veh, UHRF1BP1L / RFU, BET1 / Fold change vs veh, BET1 / RFU, CNOT2 / Fold change vs veh, CNOT2 / RFU, ZNF268 / Fold change vs veh, ZNF268 / Fold change vs veh, ZNF507 / RFU, DGCR2 / Fold change vs veh, DGCR2 / RFU, WDSUB1 / Fold change vs veh, WDSUB1 / Fold change vs veh, HSP90B1 /// MIR3652 / RFU, ADSS / Fold change vs veh, ADSS / RFU, GK / Fold change vs veh, GK / RFU, ZNF148 / Fold change vs veh, ZNF148 / RFU, TAF9 / Fold change vs veh, TAF9 / RFU, SLC1A5 / Fold change vs veh, SLC1A5 / RFU, SLMO2 / Fold change vs veh, SLMO2 / RFU, ABCC4 / Fold change vs veh, ABCC4 / RFU, LOC101060439 /// RAP1B / Fold change vs veh, LOC101060439 /// RAP1B / RFU, RFX7 / Fold change vs veh, RFX7 / RFU, GTPBP10 / Fold change vs veh, GTPBP10 / RFU, CNEP1R1 / Fold change vs veh, CNEP1R1 / RFU, BIVM-ERCC5 /// ERCC5 / Fold change vs veh, BIVM-ERCC5 /// ERCC5 / RFU, ILF3 / Fold change vs veh, ILF3 / RFU 11762660_at / Fold change /veh 11762660_at / RFU VCAN (11757783_s_at) / Fold change /veh VCAN (11757783_s_at) / RFU DDX43 (11728927_at) / Fold change /veh DDX43 (11728927_at) / RFU KRT8 (11758188_x_at) / Fold change /veh KRT8 (11758188_x_at) / RFU NKD1 (11759106_at) / Fold change /veh NKD1 (11759106_at) / RFU SRD5A1 (11742802_a_at) / Fold change /veh SRD5A1 (11742802_a_at) / RFU TPSAB1 /// TPSB2 (11721975_s_at) / Fold change /veh TPSAB1 /// TPSB2 (11721975_s_at) / RFU GSTM3 (11746129_a_at) / Fold change /veh GSTM3 (11746129_a_at) / RFU IL23R (11737362_x_at) / Fold change /veh IL23R (11737362_x_at) / RFU TMEM51 (11727254_a_at) / Fold change /veh TMEM51 (11727254_a_at) / RFU PIWIL2 (11732686_x_at) / Fold change /veh PIWIL2 (11732686_x_at) / RFU ORM1 (11744905_x_at) / Fold change /veh ORM1 (11744905_x_at) / RFU CCDC152 (11743942_at) / Fold change /veh CCDC152 (11743942_at) / RFU ECM1 (11717891_a_at) / Fold change /veh ECM1 (11717891_a_at) / RFU IL23R (11748794_a_at) / Fold change /veh IL23R (11748794_a_at) / RFU TNFAIP8L3 (11732012_x_at) / Fold change /veh TNFAIP8L3 (11732012_x_at) / RFU MBOAT4 (11741988_at) / Fold change /veh MBOAT4 (11741988_at) / RFU 11764193_at / Fold change /veh 11764193_at / RFU TMEM53 (11763286_at) / Fold change /veh TMEM53 (11763286_at) / RFU MAGEB2 (11727129_at) / Fold change /veh MAGEB2 (11727129_at) / RFU TMEM200A (11744735_a_at) / Fold change /veh TMEM200A (11744735_a_at) / RFU CCDC152 (11751479_a_at) / Fold change /veh CCDC152 (11751479_a_at) / RFU FAM211A (11726209_a_at) / Fold change /veh FAM211A (11726209_a_at) / RFU RGS16 (11746705_a_at) / Fold change /veh RGS16 (11746705_a_at) / RFU VCAN (11755009_s_at) / Fold change /veh VCAN (11755009_s_at) / RFU RHOB (11743442_s_at) / Fold change /veh RHOB (11743442_s_at) / RFU RGS16 (11720943_a_at) / Fold change /veh RGS16 (11720943_a_at) / RFU RGS16 (11720944_at) / Fold change /veh RGS16 (11720944_at) / RFU, VPS4B / Fold change vs veh, VPS4B / RFU, CREB1 / Fold change vs veh, CREB1 / RFU, DNAJC13 / Fold change vs veh, DNAJC13 / RFU, GNAQ / Fold change vs veh, GNAQ / RFU, CDK5R1 / Fold change vs veh, CDK5R1 / RFU, ZRANB3 / Fold change vs veh, ZRANB3 / RFU, CUL4A / Fold change vs veh, CUL4A / RFU, CCNY / Fold change vs veh, CCNY / RFU, UFL1 / Fold change vs veh, UFL1 / RFU, COG3 / Fold change vs veh, COG3 / RFU, DIAPH2 / Fold change vs veh, DIAPH2 / RFU, SKA2 / Fold change vs veh, SKA2 / RFU, AFF3 / Fold change vs veh, AFF3 / RFU, LMF1 / Fold change vs veh, LMF1 / RFU, IPO11 / Fold change vs veh, IPO11 / RFU, DFFB / Fold change vs veh, DFFB / RFU, FOXP1 / Fold change vs veh, FOXP1 / RFU, CARD8 / Fold change vs veh, CARD8 / RFU, STRN3 / Fold change vs veh, STRN3 / RFU, ADK / Fold change vs veh, ADK / RFU, RASSF2 / Fold change vs veh, RASSF2 / RFU, WIPF1 / Fold change vs veh, WIPF1 / RFU, LARP1B / Fold change vs veh, LARP1B / RFU, RASA1 / Fold change vs veh, RASA1 / RFU, RB1 / Fold change vs veh, RB1 / RFU, PPFIA1 / Fold change vs veh, PPFIA1 / RFU, MAT2A / Fold change vs veh, MAT2A / RFU, CCT5 / Fold change vs veh, CCT5 / RFU, WDR92 / Fold change vs veh, WDR92 / RFU, CUX1 / Fold change vs veh, CUX1 / RFU, TTC7A / Fold change vs veh, TTC7A / RFU, TMEM135 / Fold change vs veh, TMEM135 / RFU, DEPTOR / Fold change vs veh, DEPTOR / RFU, CPM / Fold change vs veh, CPM / RFU, DNAJB6 / Fold change vs veh, DNAJB6 / RFU, CACNA2D3 / Fold change vs veh, CACNA2D3 / RFU, DTX4 / Fold change vs veh, DTX4 / RFU, TFCP2 / Fold change vs veh, TFCP2 / RFU, GMCL1 /// GMCL1P1 / Fold change vs veh, GMCL1 /// GMCL1P1 / RFU, AEBP2 / Fold change vs veh, AEBP2 / RFU, SNHG1 /// SNORD22 /// SNORD25 /// SNORD26 /// SNORD27 /// SNORD28 /// SNORD29 /// SNORD31 / Fold change vs veh, SNHG1 /// SNORD22 /// SNORD25 /// SNORD26 /// SNORD27 /// SNORD28 /// SNORD29 /// SNORD31 / Fold change (Aza/veh), C12orf56 (ProbeSet 11735607_a_at) / Fold change (ACY-1035/veh), C12orf56 (ProbeSet 11735607_a_at) / Fold change (Aza/veh), FGFR1OP (ProbeSet 11751329_s_at) / Fold change (ACY-1035/veh), FGFR1OP (ProbeSet 11751329_s_at) / Fold change (Aza/veh), VPS36 (ProbeSet 11739960_a_at) / Fold change (ACY-1035/veh), VPS36 (ProbeSet 11739960_a_at) / RFU SYPL1 (11715823_x_at) / Fold change /veh SYPL1 (11715823_x_at) / RFU IGFBP7 (11715501_s_at) / Fold change /veh IGFBP7 (11715501_s_at) / RFU REEP3 (11722064_at) / Fold change /veh REEP3 (11722064_at) / RFU IGLL1 (11728026_x_at) / Fold change /veh IGLL1 (11728026_x_at): dose or concentration left out as unconfirmed
Settings: MV-4-11 cells, 48 hours

SMILES: Nc1ncn([C@@H]2O[C@H](CO)[C@@H](O)[C@H]2O)c(=O)n1 [azacitidine]
- Fold change /veh MBOAT4 (11741988_at): 1.51
